Data as given in ChEMBL document CHEMBL1649335, “Discovery of {1-[4-(2-{hexahydropyrrolo[3,4-c]pyrrol-2(1H)-yl}-1H-benzimidazol-1-yl)piperidin-1-yl]cyclooctyl}methanol, systemically potent novel non-peptide agonist of nociceptin/orphanin FQ receptor as analgesic for the treatment of neuropathic pain: design, synthesis, and structure-activity …” (Bioorg Med Chem, 2010).
Active and inactive are the calls of the source.

What was measured:
Homo sapiens = species: Homo sapiens; assay: Inhibition of human muscle-type nicotinic acetylcholine receptor at 1 uM relative to control
[1] = biological target: Substance-P receptor (Homo sapiens) (UniProt P25103); assay: Inhibition of human tachykinin NK1 receptor at 1 uM relative to control
Substance-P receptor (Homo sapiens), sequence (P25103 whole entry): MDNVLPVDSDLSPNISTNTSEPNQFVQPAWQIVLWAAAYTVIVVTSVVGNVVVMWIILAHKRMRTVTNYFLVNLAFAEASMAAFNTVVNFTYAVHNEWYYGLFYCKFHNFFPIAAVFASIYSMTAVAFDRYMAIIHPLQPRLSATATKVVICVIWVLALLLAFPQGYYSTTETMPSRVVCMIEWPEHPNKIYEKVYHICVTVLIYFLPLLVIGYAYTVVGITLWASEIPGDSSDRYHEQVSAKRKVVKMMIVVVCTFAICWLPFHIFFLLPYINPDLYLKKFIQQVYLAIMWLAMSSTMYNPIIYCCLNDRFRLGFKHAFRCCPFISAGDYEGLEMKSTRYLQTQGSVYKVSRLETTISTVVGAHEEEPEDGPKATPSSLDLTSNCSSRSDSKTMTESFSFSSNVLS

[2] = biological target: D(1A) dopamine receptor (Homo sapiens) (UniProt P21728); assay: Inhibition of human dopamine D1 receptor at 1 uM relative to control
D(1A) dopamine receptor (Homo sapiens), sequence (P21728 whole entry): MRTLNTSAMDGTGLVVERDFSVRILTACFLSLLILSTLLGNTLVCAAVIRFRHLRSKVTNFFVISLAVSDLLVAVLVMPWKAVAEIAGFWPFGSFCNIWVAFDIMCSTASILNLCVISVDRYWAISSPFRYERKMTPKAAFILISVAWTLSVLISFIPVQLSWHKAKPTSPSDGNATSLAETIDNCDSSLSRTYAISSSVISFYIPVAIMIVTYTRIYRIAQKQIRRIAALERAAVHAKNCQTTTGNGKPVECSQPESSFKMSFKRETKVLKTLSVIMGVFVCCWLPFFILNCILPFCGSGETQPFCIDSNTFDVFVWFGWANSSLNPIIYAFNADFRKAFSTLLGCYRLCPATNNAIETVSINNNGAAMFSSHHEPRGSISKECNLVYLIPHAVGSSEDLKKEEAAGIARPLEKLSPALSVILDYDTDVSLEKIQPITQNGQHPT

[3] = biological target: D(2) dopamine receptor (Homo sapiens) (UniProt P14416); assay: Inhibition of human dopamine D2 receptor at 1 uM relative to control
D(2) dopamine receptor (Homo sapiens), sequence (P14416 whole entry): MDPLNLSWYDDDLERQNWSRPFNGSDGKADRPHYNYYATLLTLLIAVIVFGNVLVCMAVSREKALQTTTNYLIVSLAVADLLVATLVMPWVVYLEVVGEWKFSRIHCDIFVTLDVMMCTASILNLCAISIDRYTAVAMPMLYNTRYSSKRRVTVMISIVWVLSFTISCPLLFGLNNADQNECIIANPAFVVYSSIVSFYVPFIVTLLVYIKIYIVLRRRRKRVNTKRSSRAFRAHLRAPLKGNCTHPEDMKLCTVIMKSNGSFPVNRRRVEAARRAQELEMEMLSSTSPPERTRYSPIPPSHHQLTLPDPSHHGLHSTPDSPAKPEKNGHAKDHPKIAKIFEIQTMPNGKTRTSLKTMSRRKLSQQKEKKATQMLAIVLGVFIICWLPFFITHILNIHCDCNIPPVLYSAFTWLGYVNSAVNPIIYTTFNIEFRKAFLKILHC

[4] = biological target: D(3) dopamine receptor (Homo sapiens) (UniProt P35462); assay: Inhibition of human dopamine D3 receptor at 1 uM relative to control
D(3) dopamine receptor (Homo sapiens), sequence (P35462 whole entry): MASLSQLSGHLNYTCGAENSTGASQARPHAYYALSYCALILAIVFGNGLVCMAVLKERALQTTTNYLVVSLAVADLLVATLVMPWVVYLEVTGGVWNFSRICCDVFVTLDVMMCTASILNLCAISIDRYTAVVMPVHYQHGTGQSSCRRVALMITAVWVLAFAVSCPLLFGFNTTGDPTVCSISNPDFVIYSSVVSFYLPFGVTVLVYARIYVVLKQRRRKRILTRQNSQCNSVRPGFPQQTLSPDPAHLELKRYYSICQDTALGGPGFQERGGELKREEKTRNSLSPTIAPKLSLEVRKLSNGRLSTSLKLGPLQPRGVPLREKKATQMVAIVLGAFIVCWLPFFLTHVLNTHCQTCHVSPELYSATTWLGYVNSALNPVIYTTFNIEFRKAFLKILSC

Rattus norvegicus [5] = assay: Antiallodynic activity against von Frey hair mechanically stimulated neuropathic pain in Sprague-Dawley rat assessed as increase of response threshold at 30 mg/kg, sc after 2 hrs relative to control; assay type: functional; conditions: route subcutaneous
Rattus norvegicus [6] = assay: Antiallodynic activity against von Frey hair mechanically stimulated neuropathic pain in Sprague-Dawley rat assessed as effect on allodynia in contralateral paw at 5.5 to 170 nmol/site, icv after 1 hr; assay type: functional, organism-based
Rattus norvegicus [7] = species: Rattus norvegicus; assay: Inhibition of rat neuronal-type nicotinic acetylcholine receptor at 1 uM relative to control
[8] = biological target: Vasopressin V1a receptor (Homo sapiens) (UniProt P37288); assay: Inhibition of human vasopressin V1A receptor at 1 uM relative to control
[9] = Drug level Sprague-Dawley rat spinal cord at 10 mg/kg, sc after […]; assay type: ADME, organism-based; set-up: dose 10 mg/kg, route subcutaneous; conditions: read-out: Drug uptake
Rattus norvegicus [10] = assay: Antiallodynic activity against von Frey hair mechanically stimulated neuropathic pain in Sprague-Dawley rat assessed as effect on allodynia in contralateral paw at 5.5 to 170 nmol/site administered intrathecally after 1 hr; assay type: functional, organism-based
[11] = biological target: L-type calcium channel, verapamil site (Rattus norvegicus, UniProt P22002+P27732+Q02485); assay: Inhibition of rat L-type calcium channel verapamil site at 1 uM relative to control
in vitro = conditions: human, liver microsomes
Rattus norvegicus [12] = assay: Antiallodynic activity against von Frey hair mechanically stimulated neuropathic pain in Sprague-Dawley rat assessed as effect on allodynia in contralateral paw at 1 to 30 mg/kg, sc after 30 mins; assay type: functional, organism-based
[13] = biological target: Histamine H2 receptor (Cavia porcellus) (UniProt P47747); assay: Inhibition of guinea pig histamine H2 receptor at 1 uM relative to control
Histamine H2 receptor (Cavia porcellus), sequence (P47747 whole entry): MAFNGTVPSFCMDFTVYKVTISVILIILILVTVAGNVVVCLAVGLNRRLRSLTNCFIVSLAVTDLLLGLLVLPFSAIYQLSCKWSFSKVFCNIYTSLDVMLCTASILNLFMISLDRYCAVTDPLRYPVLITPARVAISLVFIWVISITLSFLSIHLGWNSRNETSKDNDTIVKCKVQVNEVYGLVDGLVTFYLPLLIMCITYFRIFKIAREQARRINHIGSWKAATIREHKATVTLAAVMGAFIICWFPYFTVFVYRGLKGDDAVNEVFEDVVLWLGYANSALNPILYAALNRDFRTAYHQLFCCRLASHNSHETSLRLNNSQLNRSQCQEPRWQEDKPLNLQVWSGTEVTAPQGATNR

Rattus norvegicus [14] = species: Rattus norvegicus; assay: Inhibition of rat choline transporter at 1 uM relative to control
Rattus norvegicus [15] = assay: Antiallodynic activity against von Frey hair mechanically stimulated neuropathic pain in intrathecally dosed Sprague-Dawley rat assessed as assessed as minimum effective dose to increase of response threshold per site after 1 hr; assay type: functional
[16] = biological target: Type-1 angiotensin II receptor (Homo sapiens) (UniProt P30556); assay: Inhibition of human angiotensin 2 AT1 receptor at 1 uM relative to control
Type-1 angiotensin II receptor (Homo sapiens), sequence (P30556 whole entry): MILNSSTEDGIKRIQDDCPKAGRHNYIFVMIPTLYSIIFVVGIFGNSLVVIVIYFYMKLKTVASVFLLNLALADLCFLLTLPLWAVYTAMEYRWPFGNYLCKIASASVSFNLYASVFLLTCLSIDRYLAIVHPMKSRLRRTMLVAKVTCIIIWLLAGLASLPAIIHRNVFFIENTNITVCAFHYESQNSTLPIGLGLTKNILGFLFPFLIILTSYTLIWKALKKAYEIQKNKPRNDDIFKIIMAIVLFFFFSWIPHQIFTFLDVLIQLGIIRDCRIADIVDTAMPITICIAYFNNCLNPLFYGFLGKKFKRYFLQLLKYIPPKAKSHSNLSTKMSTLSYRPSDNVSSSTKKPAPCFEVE

Rattus norvegicus [17] = assay: Antiallodynic activity against von Frey hair mechanically stimulated neuropathic pain in sc dosed Sprague-Dawley rat assessed as increase of response threshold after 2 hrs; assay type: functional
Rattus norvegicus [18] = assay: Antiallodynic activity against von Frey hair mechanically stimulated neuropathic pain in Sprague-Dawley rat assessed as increase of response threshold at 30 mg/kg, sc after 30 mins relative to control; assay type: functional; conditions: route subcutaneous
Rattus norvegicus [19] = assay: Antiallodynic activity against von Frey hair mechanically stimulated neuropathic pain in Sprague-Dawley rat assessed as increase of response threshold per site at 55 nmol/site administered intrathecally after 20 mins relative to control; assay type: functional
Rattus norvegicus [20] = assay: Antiallodynic activity against von Frey hair mechanically stimulated neuropathic pain in sc dosed Sprague-Dawley rat assessed as assessed as minimum effective dose to increase of response threshold after 30 mins; assay type: functional
Rattus norvegicus [21] = assay: Antiallodynic activity against von Frey hair mechanically stimulated neuropathic pain in intrathecally dosed Sprague-Dawley rat assessed as increase of response threshold per site after 20 mins; assay type: functional
Rattus norvegicus [22] = assay: Antiallodynic activity against von Frey hair mechanically stimulated neuropathic pain in Sprague-Dawley rat assessed as effect on allodynia in contralateral paw at 5.5 to 170 nmol/site administered intrathecally after 20 mins; assay type: functional, organism-based
[23] = biological target: Muscarinic acetylcholine receptor M3 (Homo sapiens) (UniProt P20309); assay: Inhibition of human muscarinic M3 receptor at 1 uM relative to control
Muscarinic acetylcholine receptor M3 (Homo sapiens), sequence (P20309 whole entry, looked up): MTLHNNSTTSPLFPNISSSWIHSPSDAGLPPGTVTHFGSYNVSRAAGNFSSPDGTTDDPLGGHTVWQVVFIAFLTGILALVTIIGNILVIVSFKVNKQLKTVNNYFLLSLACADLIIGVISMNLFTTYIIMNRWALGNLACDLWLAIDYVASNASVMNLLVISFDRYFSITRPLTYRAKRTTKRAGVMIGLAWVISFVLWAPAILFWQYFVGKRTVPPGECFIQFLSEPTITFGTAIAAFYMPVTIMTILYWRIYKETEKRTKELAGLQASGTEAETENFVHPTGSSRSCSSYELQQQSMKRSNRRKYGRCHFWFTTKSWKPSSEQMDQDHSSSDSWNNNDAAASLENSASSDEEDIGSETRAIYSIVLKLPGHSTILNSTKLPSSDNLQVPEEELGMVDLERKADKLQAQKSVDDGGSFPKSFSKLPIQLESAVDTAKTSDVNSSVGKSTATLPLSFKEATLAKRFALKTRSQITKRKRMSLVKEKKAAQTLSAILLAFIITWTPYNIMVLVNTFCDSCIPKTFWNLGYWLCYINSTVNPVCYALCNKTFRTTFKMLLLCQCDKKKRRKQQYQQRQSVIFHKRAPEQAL

[24] = biological target: L-type calcium channel, diltiazem site (Rattus norvegicus, UniProt P22002+P27732+Q02485); assay: Inhibition of rat L-type calcium channel diltiazem site at 1 uM relative to control
[25] = biological target: Cysteinyl leukotriene receptor 1 (Homo sapiens) (UniProt Q9Y271); assay: Inhibition of human leukotriene D4 receptor at 1 uM relative to control
Cysteinyl leukotriene receptor 1 (Homo sapiens), sequence (Q9Y271 whole entry): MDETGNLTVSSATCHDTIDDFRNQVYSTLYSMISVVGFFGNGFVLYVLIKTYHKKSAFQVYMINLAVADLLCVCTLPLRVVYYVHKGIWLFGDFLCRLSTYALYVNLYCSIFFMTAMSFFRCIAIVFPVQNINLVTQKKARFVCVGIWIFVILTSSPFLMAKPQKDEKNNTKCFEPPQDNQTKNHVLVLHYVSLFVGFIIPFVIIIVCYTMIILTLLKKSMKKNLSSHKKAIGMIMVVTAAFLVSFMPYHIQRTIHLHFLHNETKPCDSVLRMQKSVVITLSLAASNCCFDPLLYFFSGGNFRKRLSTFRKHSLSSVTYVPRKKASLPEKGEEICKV

Rattus norvegicus [26] = species: Rattus norvegicus; assay: Inhibition of rat K+ATP channel at 1 uM relative to control
[27] = Drug level Sprague-Dawley rat brain at 10 mg/kg, sc after […]; assay type: ADME, organism-based; set-up: dose 10 mg/kg, route subcutaneous; conditions: read-out: Drug uptake
[28] = biological target: Sodium-dependent noradrenaline transporter (Homo sapiens) (UniProt P23975); assay: Inhibition of human norepinephrine transporter at 1 uM relative to control
Sodium-dependent noradrenaline transporter (Homo sapiens), sequence (P23975 whole entry): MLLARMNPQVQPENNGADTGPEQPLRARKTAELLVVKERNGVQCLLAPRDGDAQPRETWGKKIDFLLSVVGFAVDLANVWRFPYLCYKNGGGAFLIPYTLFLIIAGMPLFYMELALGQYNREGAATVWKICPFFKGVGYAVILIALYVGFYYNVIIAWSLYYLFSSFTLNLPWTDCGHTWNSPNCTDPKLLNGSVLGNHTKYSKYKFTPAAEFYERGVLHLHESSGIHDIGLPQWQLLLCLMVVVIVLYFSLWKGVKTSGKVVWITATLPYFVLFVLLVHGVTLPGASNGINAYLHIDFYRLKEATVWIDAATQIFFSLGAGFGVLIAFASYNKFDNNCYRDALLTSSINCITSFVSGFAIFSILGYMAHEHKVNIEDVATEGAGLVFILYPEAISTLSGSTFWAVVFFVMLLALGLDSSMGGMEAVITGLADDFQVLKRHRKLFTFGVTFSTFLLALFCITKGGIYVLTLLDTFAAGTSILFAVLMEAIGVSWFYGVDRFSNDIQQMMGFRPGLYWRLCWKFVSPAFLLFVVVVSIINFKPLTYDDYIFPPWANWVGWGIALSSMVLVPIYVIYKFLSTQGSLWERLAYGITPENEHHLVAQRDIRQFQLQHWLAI

monoamine oxidase A = monoamine oxidase A (Homo sapiens, UniProt P21397); assay: Inhibition of human monoamine oxidase A at 1 uM relative to control
monoamine oxidase A, sequence (P21397 whole entry): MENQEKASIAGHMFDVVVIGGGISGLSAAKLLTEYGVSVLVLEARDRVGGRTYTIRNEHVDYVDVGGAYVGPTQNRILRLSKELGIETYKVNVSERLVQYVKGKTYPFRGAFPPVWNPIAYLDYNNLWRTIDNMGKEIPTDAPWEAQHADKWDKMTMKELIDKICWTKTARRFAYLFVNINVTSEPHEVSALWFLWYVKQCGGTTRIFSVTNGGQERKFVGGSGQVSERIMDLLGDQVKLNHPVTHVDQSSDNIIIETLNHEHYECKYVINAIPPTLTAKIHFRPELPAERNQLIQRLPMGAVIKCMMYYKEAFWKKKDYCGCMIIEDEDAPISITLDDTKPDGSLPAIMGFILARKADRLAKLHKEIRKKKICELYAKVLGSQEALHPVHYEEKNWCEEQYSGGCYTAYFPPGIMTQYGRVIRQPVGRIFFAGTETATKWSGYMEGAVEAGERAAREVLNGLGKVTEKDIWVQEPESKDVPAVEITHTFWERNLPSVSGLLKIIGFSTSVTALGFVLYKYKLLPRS

Rattus norvegicus [29] = species: Rattus norvegicus; assay: Inhibition of rat K+V channel at 1 uM relative to control
Rattus norvegicus [30] = species: Rattus norvegicus; assay: Stimulation of rat guanylate cyclase at 1 uM relative to basal activity
Rattus norvegicus [31] = species: Rattus norvegicus; assay: Inhibition of rat sigma receptor at 1 uM relative to control
[32] = biological target: Estrogen receptor (Homo sapiens) (UniProt P03372); assay: Inhibition of human estrogen receptor beta at 1 uM relative to control
Rattus norvegicus [33] = assay: Antiallodynic activity against von Frey hair mechanically stimulated neuropathic pain in Sprague-Dawley rat assessed as increase of response threshold at 10 mg/kg, sc after 1 hr relative to control; assay type: functional; conditions: route subcutaneous
Rattus norvegicus [34] = species: Rattus norvegicus; assay: Inhibition of rat thyroid hormone receptor at 1 uM relative to control
Rattus norvegicus [35] = species: Rattus norvegicus; assay: Inhibition of rat GABA transporter at 1 uM relative to control
[36] = biological target: Histamine H1 receptor (Cavia porcellus) (UniProt P31389); assay: Inhibition of guinea pig histamine H1 receptor at 1 uM relative to control
Histamine H1 receptor (Cavia porcellus), sequence (P31389 whole entry): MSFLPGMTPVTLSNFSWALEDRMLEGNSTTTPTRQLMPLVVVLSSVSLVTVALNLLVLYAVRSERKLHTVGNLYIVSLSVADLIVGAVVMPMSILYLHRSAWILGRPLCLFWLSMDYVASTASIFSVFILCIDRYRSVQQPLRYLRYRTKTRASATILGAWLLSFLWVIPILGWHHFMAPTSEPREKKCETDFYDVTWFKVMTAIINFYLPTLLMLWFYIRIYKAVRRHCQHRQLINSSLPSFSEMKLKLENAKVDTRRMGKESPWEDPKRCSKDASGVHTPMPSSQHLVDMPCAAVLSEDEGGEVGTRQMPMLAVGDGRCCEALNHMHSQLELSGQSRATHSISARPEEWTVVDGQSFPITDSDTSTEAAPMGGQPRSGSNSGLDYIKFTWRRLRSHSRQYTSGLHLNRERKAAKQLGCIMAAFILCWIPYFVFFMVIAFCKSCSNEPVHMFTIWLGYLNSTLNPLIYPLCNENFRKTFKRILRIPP

Rattus norvegicus [37] = assay: Antiallodynic activity against von Frey hair mechanically stimulated neuropathic pain in Sprague-Dawley rat assessed as effect on allodynia in contralateral paw at 1 to 30 mg/kg, sc after 2 hrs; assay type: functional, organism-based
Rattus norvegicus [38] = species: Rattus norvegicus; assay: Inhibition of rat glycine receptor at 1 uM relative to control
[39] = biological target: Adrenergic receptor alpha-2 (Rattus norvegicus) (UniProt P22086+P19328+P22909); assay: Inhibition of rat alpha2 adrenoceptor at 1 uM relative to control
Rattus norvegicus [40] = species: Rattus norvegicus; assay: Inhibition of rat AMPA receptor at 1 uM relative to control
Rattus norvegicus [41] = assay: Antiallodynic activity against von Frey hair mechanically stimulated neuropathic pain in sc dosed Sprague-Dawley rat assessed as increase of response threshold after 4 hrs; assay type: functional
[42] = biological target: Beta-1 adrenergic receptor (Homo sapiens) (UniProt P08588); assay: Inhibition of human beta1 adrenoceptor at 1 uM relative to control

Work on `OCC1(N2CCC(n3c(N4CC5CNCC5C4)nc4ccccc43)CC2)CCCCCCC1` (stereo unspecified) yielded an inhibition (Homo sapiens) of 21%, an inhibition [1] of under 10% and an inhibition [2] of under 10%. It also gave an inhibition [3] of under 10%, an inhibition [4] of under 10% and an Activity (Rattus norvegicus [5]) of 35.8%. The Activity (Rattus norvegicus [6]) was “inactive”, the inhibition (Rattus norvegicus [7]) was under 10% and the inhibition [8] was under 10%. The concentration at […] [9] was 63 ng/mL, the Activity (Rattus norvegicus [10]) was “inactive” and the inhibition at 1 µM [11] was under 10%. For the same molecule, the half-life at 1 µM (in vitro) was 45.6 min, the Activity (Rattus norvegicus [12]) was “inactive” and the inhibition [13] was 22%. For the same molecule, the inhibition (Rattus norvegicus [14]) was 11%, the MED (Rattus norvegicus [15]) was 55 nmol and the inhibition [16] was under 10%. The ED50 (Rattus norvegicus [17]) was over 30 mg/kg, the Activity (Rattus norvegicus [18]) was 57.6% and the Activity (Rattus norvegicus [19]) was 49.4%. The MED (Rattus norvegicus [20]) was 30 mg/kg, the Activity (Rattus norvegicus [21]) was “Dose-dependent effect” and the ED50 (Rattus norvegicus [21]) was 80 nmol. For the same molecule, the Activity (Rattus norvegicus [22]) was “inactive”, the inhibition [23] was under 10% and the inhibition at 1 µM [24] was 18%. The inhibition [25] was under 10%, the inhibition (Rattus norvegicus [26]) was under 10% and the concentration at […] [27] was 226 ng/mL. The inhibition [28] was under 10%, the inhibition at 1 µM (monoamine oxidase A) was 12% and the inhibition (Rattus norvegicus [29]) was under 10%. It also gave an inhibition (Rattus norvegicus [30]) of under 10%, an inhibition (Rattus norvegicus [31]) of 10% and an inhibition [32] of under 10%. For the same molecule, the Activity (Rattus norvegicus [33]) was 37.6%, the inhibition (Rattus norvegicus [34]) was under 10% and the inhibition (Rattus norvegicus [35]) was 24%. For the same molecule, the inhibition [36] was under 10%, the Activity (Rattus norvegicus [37]) was “inactive” and the inhibition (Rattus norvegicus [38]) was under 10%. The inhibition [39] was under 10%, the inhibition (Rattus norvegicus [40]) was under 10% and the ED50 (Rattus norvegicus [41]) was over 30 mg/kg. For the same molecule, the inhibition [42] was under 10%.
